Test results taken from US20160340322A1 (NISSAN CHEMICAL INDUSTRIES, LTD., priority 2013, published 2016).
pIC50: −log10 of the molar value.

Biological target: T1, Human T-type calcium channel (Cav 3.2) (Homo sapiens, UniProt O95180)
T1 construct: Edward Perez-Reyes, University of Virginia, USA; host or cells: HEK293
Assay: Calcium Influx Inhibition Assay
Type: cell-based
Details: human T-type calcium channel (Cav 3.2) expressing HEK293 cells; FLIPR Calcium 4 fluorescence; 30 min compound incubation; read-out: T-type calcium channel inhibition concentration IC50
Description: 1. Calcium Influx Inhibition Assay Human T-type calcium channel (Cav 3.2) expressing HEK293 cells were introduced from Prof. Edward Perez-Reyes, University of Virginia, USA. The calcium-sensitive fluorescent dye used was FLIPR Calcium 4 Assay Kit (Molecular Devices). To a black 96-well plate with a clear bottom coated with type I collagen, the human T-type calcium channel (Cav 3.2) expressing HEK293 cells were seeded and cultured overnight, and the culture medium was removed. A solution of the calcium-sensitive fluorescent dye was added, and the resultant plate was incubated at 37° C. in an atmosphere of 5% carbon dioxide for 30 minutes. To the plate, a diluted solution of a compound was added, and subjected to further incubation at 37° C. in an atmosphere of 5% carbon dioxide for 30 minutes. While fluorescence was continuously analyzed from the bottom with a FlexStation 3 (Molecular Devices), a calcium solution was added. […] Based on the rise value in the fluorescence from the base line, the inhibition percentage was calculated. The logarithms of compound concentrations were plotted with respect to the inhibition activities to obtain an IC50 value.

T1 sequence (O95180 whole entry): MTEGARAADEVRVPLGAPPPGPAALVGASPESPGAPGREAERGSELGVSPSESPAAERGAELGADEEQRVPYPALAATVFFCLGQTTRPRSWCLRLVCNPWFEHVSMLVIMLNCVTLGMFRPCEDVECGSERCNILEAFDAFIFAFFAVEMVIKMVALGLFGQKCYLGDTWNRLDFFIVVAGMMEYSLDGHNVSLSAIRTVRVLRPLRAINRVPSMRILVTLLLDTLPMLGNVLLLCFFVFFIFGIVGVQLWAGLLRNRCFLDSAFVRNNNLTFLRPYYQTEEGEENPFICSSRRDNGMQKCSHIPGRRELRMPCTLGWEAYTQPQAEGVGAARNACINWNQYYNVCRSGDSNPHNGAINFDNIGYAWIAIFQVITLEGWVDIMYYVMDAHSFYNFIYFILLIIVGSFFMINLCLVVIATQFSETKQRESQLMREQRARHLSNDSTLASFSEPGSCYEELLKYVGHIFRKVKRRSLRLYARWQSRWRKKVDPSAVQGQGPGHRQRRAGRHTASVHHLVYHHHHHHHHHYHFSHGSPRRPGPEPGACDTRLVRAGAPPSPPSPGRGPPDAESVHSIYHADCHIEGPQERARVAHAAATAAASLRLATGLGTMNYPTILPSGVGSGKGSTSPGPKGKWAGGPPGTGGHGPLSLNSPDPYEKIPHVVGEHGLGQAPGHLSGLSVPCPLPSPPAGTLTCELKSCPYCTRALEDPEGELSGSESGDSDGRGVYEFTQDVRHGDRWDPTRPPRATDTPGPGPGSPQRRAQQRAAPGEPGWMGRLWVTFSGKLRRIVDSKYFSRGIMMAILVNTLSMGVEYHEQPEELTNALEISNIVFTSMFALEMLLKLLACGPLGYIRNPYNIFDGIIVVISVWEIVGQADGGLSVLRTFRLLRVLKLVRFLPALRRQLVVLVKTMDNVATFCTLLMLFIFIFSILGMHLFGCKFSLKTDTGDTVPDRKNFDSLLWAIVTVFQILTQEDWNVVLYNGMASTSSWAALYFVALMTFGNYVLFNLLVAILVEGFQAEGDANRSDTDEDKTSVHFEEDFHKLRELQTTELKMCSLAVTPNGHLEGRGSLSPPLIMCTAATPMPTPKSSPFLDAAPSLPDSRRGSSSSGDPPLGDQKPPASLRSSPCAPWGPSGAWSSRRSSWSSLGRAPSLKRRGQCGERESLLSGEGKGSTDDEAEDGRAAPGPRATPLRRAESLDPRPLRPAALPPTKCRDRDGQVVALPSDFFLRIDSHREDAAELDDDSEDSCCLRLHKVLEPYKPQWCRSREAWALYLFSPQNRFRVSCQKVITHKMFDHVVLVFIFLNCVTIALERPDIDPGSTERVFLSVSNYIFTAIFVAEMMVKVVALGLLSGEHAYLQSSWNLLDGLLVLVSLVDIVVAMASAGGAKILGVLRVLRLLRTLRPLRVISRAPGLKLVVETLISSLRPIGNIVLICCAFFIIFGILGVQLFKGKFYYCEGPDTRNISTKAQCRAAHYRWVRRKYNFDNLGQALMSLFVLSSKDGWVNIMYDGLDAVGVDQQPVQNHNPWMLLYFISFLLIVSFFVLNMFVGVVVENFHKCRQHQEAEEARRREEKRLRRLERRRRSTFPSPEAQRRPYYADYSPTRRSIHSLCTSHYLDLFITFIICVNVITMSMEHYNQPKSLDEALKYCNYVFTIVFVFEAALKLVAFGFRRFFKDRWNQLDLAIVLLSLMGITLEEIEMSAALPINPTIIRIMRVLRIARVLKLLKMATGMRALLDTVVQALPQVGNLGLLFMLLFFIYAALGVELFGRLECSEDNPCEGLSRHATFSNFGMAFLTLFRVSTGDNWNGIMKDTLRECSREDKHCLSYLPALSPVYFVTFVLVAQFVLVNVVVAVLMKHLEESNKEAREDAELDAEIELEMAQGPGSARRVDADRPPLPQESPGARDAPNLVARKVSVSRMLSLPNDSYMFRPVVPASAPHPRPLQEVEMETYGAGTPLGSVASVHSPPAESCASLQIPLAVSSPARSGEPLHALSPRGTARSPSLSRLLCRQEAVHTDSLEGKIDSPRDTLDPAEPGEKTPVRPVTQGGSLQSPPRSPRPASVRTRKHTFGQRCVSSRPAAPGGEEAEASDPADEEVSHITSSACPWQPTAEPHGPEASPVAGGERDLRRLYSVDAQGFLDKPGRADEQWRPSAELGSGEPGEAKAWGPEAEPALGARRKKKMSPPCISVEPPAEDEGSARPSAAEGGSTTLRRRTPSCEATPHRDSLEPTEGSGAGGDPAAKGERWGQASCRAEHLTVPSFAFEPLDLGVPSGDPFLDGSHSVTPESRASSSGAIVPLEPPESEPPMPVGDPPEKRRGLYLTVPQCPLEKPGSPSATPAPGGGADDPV

pIC50: 7.16
Structure (SMILES): Cc1cc(N2CCN(c3cnn(Cc4ccc(C(F)(F)F)s4)c(=O)n3)CC2)cs1 [Synthesis Example 40, 5-[4-(5-Methylthiophen-3-yl)piperazin-1-yl]-2-{[5-(trifluoromethyl)thiophen-2-yl]methyl}-1,2,4-triazin-3(2H)-one]
